The Kinase Knowledgebase extract (Sharma et al. 2016)

target: CDK2 (UniProt P24941); test: Enzyme Assay

Compound	IC50 [µM]
CCSc1cc(=O)c2c(O)cc(OC)c([C@H]3CCN(C)C[C@H]3O)c2o1	< 20
COc1ccc(Sc2cc(=O)c3c(O)cc(O)c([C@H]4CCN(C)C[C@H]4O)c3o2)cc1	< 20
CN1CCC(c2c(O)cc(O)c3c(=O)cc(SCc4ccc(C(C)(C)C)cc4)oc23)C(O)C1 (configuration not stated)	< 20
COc1ccc(Sc2cc(=O)c3c(O)cc(O)c(C4CCN(C)CC4O)c3o2)cc1 (configuration not stated)	< 20
COc1ccc(CSc2cc(=O)c3c(O)cc(O)c([C@H]4CCN(C)C[C@H]4O)c3o2)cc1	< 20
CN1CCC(c2c(O)cc(O)c3c(=O)cc(Sc4ccccc4Cl)oc23)C(O)C1 (configuration not stated)	< 20
COC(=O)CCSc1cc(=O)c2c(O)cc(O)c([C@H]3CCN(C)C[C@H]3O)c2o1	< 20
CN1CCC(c2c(O)cc(O)c3c(=O)cc(Sc4ccc(C(C)(C)C)cc4)oc23)C(O)C1 (configuration not stated)	< 20
CCc1ccc(Sc2cc(=O)c3c(O)cc(O)c(C4CCN(C)CC4O)c3o2)cc1 (configuration not stated)	< 20
CCSc1cc(=O)c2c(O)cc(O)c([C@H]3CCN(C)C[C@H]3O)c2o1	< 20
CN1CC[C@H](c2c(O)cc(O)c3c(=O)cc(Sc4ccccc4)oc23)[C@H](O)C1	< 20
CC(=O)NCCSc1cc(=O)c2c(O)cc(O)c(C3CCN(C)CC3O)c2o1 (configuration not stated)	< 20
Cc1ccc(Sc2cc(=O)c3c(O)cc(O)c(C4CCN(C)CC4O)c3o2)cc1C (configuration not stated)	< 20
CCCCSc1cc(=O)c2c(O)cc(O)c([C@H]3CCN(C)C[C@H]3O)c2o1	< 20
CC(=O)NCCSc1cc(=O)c2c(O)cc(O)c([C@H]3CCN(C)C[C@H]3O)c2o1	< 20
CN1CC[C@H](c2c(O)cc(O)c3c(=O)cc(SCCO)oc23)[C@H](O)C1	< 20
CN1CC[C@H](c2c(O)cc(O)c3c(=O)cc(Oc4ccccc4)oc23)[C@H](O)C1	< 20
CN1CCC(c2c(O)cc(O)c3c(=O)cc(SCCO)oc23)C(O)C1 (configuration not stated)	< 20
CN1CCC(c2c(O)cc(O)c3c(=O)cc(Sc4ccc(OC(F)(F)F)cc4)oc23)C(O)C1 (configuration not stated)	< 20
COc1ccc(CSc2cc(=O)c3c(O)cc(O)c(C4CCN(C)CC4O)c3o2)cc1 (configuration not stated)	< 20
CN1CC[C@H](c2c(O)cc(O)c3c(=O)cc(SCc4ccccc4)oc23)[C@H](O)C1	< 20
CN1CC[C@H](c2c(O)cc(O)c3c(=O)cc(Sc4ccccc4Cl)oc23)[C@H](O)C1	< 20
